From paper PMC10456296, “Trichoderols B-G, Six New Lipids from the Marine Algicolous Fungus Trichoderma sp. Z43” (Marine Drugs, 2023) come the findings set out here.

Values after ≈ are worked out from the molar mass of the structure shown. Read-outs that look alike come from different tables or passages of the source.

Data set [1] deals with Heterocapsa circularisquama. The experiment in a line: Antimicroalgal activity, inhibition of marine phytoplankton. The settings on record: for IC50: Heterocapsa circularisquama, 24 h, read-out: IC50 Heterocapsa circularisquama.
For a further data set, the system named is Heterosigma akashiwo. Described as above. The settings on record: for IC50: Heterosigma akashiwo, 24 h, read-out: IC50 Heterosigma akashiwo.
In data set [2] the test system is three phytopathogenic fungi (Fusarium graminearum, Gaeumannomyces graminis, and Glomerella cingulata). In words: organism not typed. The class given is cell-based. As to conditions: for MIC: read-out: MIC against the three phytopathogenic fungi tested, summary over three fungi; for antifungal activity (in words): summary over three fungi.
A further data set deals with Gaeumannomyces graminis. The experiment in a line: Antifungal activity, microdilution method in 96-well plate. It is filed as cell-based. As to conditions: 48 h, read-out: MIC Gaeumannomyces graminis. Background: Dilution methods test growth across graded concentrations, often in twofold steps.
Another data set deals with Glomerella cingulata. Described as above. It is filed as cell-based. The settings on record: Colletotrichum gloeosporioides; microdilution in PDB, 28 °C, 48 h.
A further data set deals with Amphidinium carterae. The experiment in a line: Antimicroalgal activity, inhibition of marine phytoplankton. As to conditions: for IC50: Amphidinium carterae, 24 h, read-out: IC50 Amphidinium carterae.
A further data set concerns Prorocentrum donghaiense. The data set is described as above. As to conditions: for IC50: Prorocentrum donghaiense, 24 h, read-out: IC50 Prorocentrum donghaiense.
Another data set concerns Fusarium graminearum. The experiment in a line: microbe, parasite or virus in culture. The settings on record: 48 h, read-out: MIC Fusarium graminearum. It is filed as cell-based.
For a further data set, the system named is Artemia salina. The experiment in a line: Brine shrimp lethal activity. It is filed as in vivo. As to conditions: 24 h. How it is done:
The inhibition of the brine shrimp Artermia salina was assayed according to the procedures described in our previous report. In brief, brine shrimp eggs were left to hatch in sea water for 48 h at 25 °C under natural light. […] The lethality was observed after 24 h of cultivation.

On to `C/C=C/CC[C@@H](O)[C@@H](O)C/C=C/[C@@H](O)[C@H](C)O` [Compound 7, triharzianin B], for which the 50% inhibitory concentration (IC50) is over 100 µg/mL in [1], 49 µg/mL (≈ 201 µM) in the data set with Heterosigma akashiwo, over 100 µg/mL with Amphidinium carterae and 30 µg/mL (≈ 123 µM) in the data set on Prorocentrum donghaiense. Further, the MIC is at least 64 µg/mL in data set [2]; 256 µg/mL (≈ 1050 µM) with Gaeumannomyces graminis (microdilution in PDB, 28 °C); 128 µg/mL (≈ 524 µM) in the data set on Glomerella cingulata; over 256 µg/mL in the data set on Fusarium graminearum. For the same compound, the “antifungal activity (in words)” value in data set [2] is “weak antifungal activity”.
As to `C/C=C/CCC(O)C(O)/C=C/C=C/C(O)CO` (stereo not drawn) [Compound 2, (3E,5E,11E)-trideca-3,5,11-trien-1,2,7,8-tetraol], the IC50 in data set [1] is over 100 µg/mL; in the data set on Heterosigma akashiwo, 43 µg/mL (≈ 177 µM); in the data set on Amphidinium carterae, 61 µg/mL (≈ 252 µM); with Prorocentrum donghaiense, 37 µg/mL (≈ 153 µM). The MIC in the data set with Gaeumannomyces graminis (microdilution in PDB, 28 °C) is over 256 µg/mL; in the data set on Glomerella cingulata it was over 256 µg/mL; in the data set on Fusarium graminearum it was over 256 µg/mL.
Turning to `C=CCC(O)/C=C/C(O)C(O)CC/C=C/C` (stereo not drawn) [Compound 3, (5E,11E)-trideca-1,5,11-trien-4,7,8-triol], the half-inhibitory concentration (IC50) is 78 µg/mL (≈ 345 µM) in data set [1], over 100 µg/mL in the data set with Heterosigma akashiwo, 66 µg/mL (≈ 292 µM) in the data set on Amphidinium carterae and over 100 µg/mL with Prorocentrum donghaiense. The MIC is over 256 µg/mL in the data set on Gaeumannomyces graminis (microdilution in PDB, 28 °C); over 256 µg/mL against Glomerella cingulata; over 256 µg/mL in the data set with Fusarium graminearum.
For the compound `C/C=C/CCC(O)C(O)C/C=C/CC(C)O` (stereo not drawn) [Compound 5, (4E,11E)-trideca-4,11-dien-2,7,8-triol], the IC50 in data set [1] was 68 µg/mL (≈ 298 µM); with Heterosigma akashiwo, over 100 µg/mL; with Amphidinium carterae, 50 µg/mL (≈ 219 µM); in the data set with Prorocentrum donghaiense, over 100 µg/mL. The MIC is over 256 µg/mL with Gaeumannomyces graminis (microdilution in PDB, 28 °C); over 256 µg/mL against Glomerella cingulata; over 256 µg/mL in the data set on Fusarium graminearum.
Consider `[K+].[K+].[O]=[Cr](=[O])([O-])[O][Cr](=[O])(=[O])[O-]` [Compound K2Cr2O7, K2Cr2O7, reference compound], for which, in [1] (live cells counted after 24 h), the “IC50 Heterocapsa circularisquama” value was determined as 1.0 µg/mL. The “Lethal Rate (at 100 μg/mL) Artemia salina” value in the data set with Artemia salina worked out at 100%. Moreover, the “IC50 Heterosigma akashiwo” value in the data set with Heterosigma akashiwo (live cells counted after 24 h) turned out to be 0.8 µg/mL. The “IC50 Amphidinium carterae” value in the data set on Amphidinium carterae (live cells counted after 24 h) turned out to be 1.2 µg/mL. Further, the “IC50 Prorocentrum donghaiense” value in the data set on Prorocentrum donghaiense (live cells counted after 24 h) is 1.4 µg/mL.
Regarding `C/C=C/CCC(O)C(O)C/C=C/CO` (stereo not drawn) [Compound 6, (2E,9E)-undeca-2,9-dien-1,5,6-triol], the IC50 in data set [1] is over 100 µg/mL; in the data set on Heterosigma akashiwo, 82 µg/mL (≈ 409 µM); with Amphidinium carterae, 44 µg/mL (≈ 220 µM); in the data set with Prorocentrum donghaiense it was over 100 µg/mL. The MIC is over 256 µg/mL in the data set with Gaeumannomyces graminis (microdilution in PDB, 28 °C); over 256 µg/mL against Glomerella cingulata; over 256 µg/mL in the data set with Fusarium graminearum.
As for `C/C=C/CCC(O)C(O)C/C=C/C(O)C(C)O` (stereo not drawn) [Compound 4, (4E,11E)-trideca-4,11-diene-2,3,7,8-tetraol], the IC50 in [1] was over 100 µg/mL; in the data set on Heterosigma akashiwo, 53 µg/mL (≈ 217 µM); in the data set on Amphidinium carterae, over 100 µg/mL; with Prorocentrum donghaiense, 42 µg/mL (≈ 172 µM). In addition, the MIC was at least 64 µg/mL in [2]; 256 µg/mL (≈ 1050 µM) in the data set on Gaeumannomyces graminis (microdilution in PDB, 28 °C); 128 µg/mL (≈ 524 µM) against Glomerella cingulata; over 256 µg/mL in the data set on Fusarium graminearum. Besides, the “antifungal activity (in words)” value in data set [2] is “weak antifungal activity”.
Turning to `CC=CCCC1(O)OC(C(O)C=CC)CC1O` (stereo not drawn) [Compound 1, Trichoderol B], the IC50 worked out at 24 µg/mL (≈ 99 µM) in data set [1], 28 µg/mL (≈ 116 µM) in the data set on Heterosigma akashiwo, 15 µg/mL (≈ 61.9 µM) in the data set on Amphidinium carterae and 22 µg/mL (≈ 90.8 µM) in the data set with Prorocentrum donghaiense. The MIC in data set [2] is 64 to 256 µg/mL (≈ 264 to 1060 µM); in the data set on Gaeumannomyces graminis, 256 µg/mL (≈ 1060 µM); against Glomerella cingulata, 64 µg/mL (≈ 264 µM); with Fusarium graminearum, 256 µg/mL (≈ 1060 µM). Moreover, in data set [2], the “antifungal activity (in words)” value is recorded as “weak antifungal activity”.
In the case of `C[C@@H]1[C@H](O)[C@@H](C)/C=C/C=C/C=C/C=C/C=C/C=C/C=C/[C@H](O[C@@H]2O[C@H](C)[C@@H](O)[C@H](N)[C@@H]2O)C[C@@H]2O[C@](O)(C[C@@H](O)C[C@@H](O)[C@H](O)CC[C@@H](O)C[C@@H](O)CC(=O)O[C@H]1C)C[C@H](O)[C@H]2C(=O)O` [amphotericin B, reference compound], the MIC turned out to be 2 µg/mL (≈ 2.16 µM) in the data set on Gaeumannomyces graminis (microdilution in PDB, 28 °C); 1 µg/mL (≈ 1.08 µM) with Glomerella cingulata; 2 µg/mL (≈ 2.16 µM) in the data set on Fusarium graminearum.

In general, IC50 refers to the concentration that inhibits the measured activity by half.
